The values below come from patent US10165775B2, “Pesticidal compositions and processes related thereto” (Dow AgroSciences LLC, priority 2011, dated 2019).

Data set [1] has as its system Green Peach Aphid (GPA) (Myrzus persicae) (MYZUPE). As to the kind of experiment: Bioassay on green peach aphid (GPA), foliar spray on cabbage seedlings. Conditions: Myzus persicae, 72 h, 200 ppm foliar spray, graded after three days, Abbott corrected % control, read-out: MYZUPE % Ctrl @ 200 ppm. The class given is in vivo. The procedure: Certain molecules disclosed in this document were tested against GPA using procedures described in the following example. In the reporting of the results, “Table 3: GPA (MYZUPE) and sweetpotato whitefly-crawler (BEMITA) Rating Table” was used (See Table Section).
Cabbage seedlings grown in 3-inch pots, with 2-3 small (3-5 cm) true leaves, were used as test substrate. The seedlings were infested with 20-50 GPA (wingless adult and nymph stages) one day prior to chemical application. Four pots with individual seedlings were used for each treatment. Test compounds (2 mg) were dissolved in 2 mL of acetone/methanol (1:1) solvent, forming stock solutions of 1000 ppm test compound. The stock solutions were diluted 5× with 0.025% Tween 20 in H2O to obtain the solution at 200 ppm test compound. A hand-held aspirator-type sprayer was used for spraying a solution to both sides of […] leaves until runoff. Reference plants (solvent check) were sprayed with the diluent only containing 20% by volume of acetone/methanol (1:1) solvent. Treated plants were held in a holding room for three days at approximately 25° C. and ambient relative humidity (RH) prior to grading. Evaluation was conducted by counting the number of live aphids per plant under a microscope. Percent Control was measured by using Abbott's correction formula (W. S. Abbott. “A Method of Computing the Effectiveness of an Insecticide” J. Econ. Entomol. 18 (1925), pp. 265-267) as follows. Corrected % Control=100*(X−Y)/X • where • X=No. of live aphids on solvent check plants and • Y=No. of live aphids on treated plants
Biological Data for GPA (MYZUPE) and sweetpotato whitefly-crawler (BEMITA)” (See Table Section).

Data set [2] relates to Sweetpotato whitefly-crawler (Bemisia tabaci) (BEMITA). Briefly: Insecticidal test for sweetpotato whitefly-crawler in foliar spray assay on cotton plants. In kind it is in vivo. Conditions: 200 ppm foliar spray, graded after 8-9 days, Abbott corrected % control, read-out: BEMITA % Ctrl @ 200 ppm. As to the method:
Cotton plants grown in 3-inch pots, with 1 small (3-5 cm) true leaf, were used as test substrate. The plants were placed in a room with whitefly adults. Adults were allowed to deposit eggs for 2-3 days. After a 2-3 day egg-laying period, plants were taken from the adult whitefly room. Adults were blown off leaves using a hand-held Devilbiss sprayer (23 psi). Plants with egg infestation (100-300 eggs per plant) were placed in a holding room for 5-6 days at 82° F. and 50% RH for egg hatch and crawler stage to develop. Four cotton plants were used for each treatment. Compounds (2 mg) were dissolved in 1 mL of acetone solvent, forming stock solutions of 2000 ppm. The stock solutions were diluted 10× with 0.025% Tween 20 in H2O to obtain a test solution at 200 ppm. A hand-held Devilbiss sprayer was used for spraying a solution to both sides of cotton leaf until runoff. Reference plants (solvent check) were sprayed with the diluent only. Treated plants were held in a holding room for 8-9 days at approximately 82° F. and 50% RH prior to grading. Evaluation was conducted by counting the number of live nymphs per plant under a microscope. Insecticidal activity was measured by using Abbott's correction formula and presented in “Table 4. Biological Data for GPA (MYZUPE) and sweetpotato whitefly-crawler (BEMITA)” (see column “BEMITA”): Corrected % Control=100*(X−Y)/X • where X=No. of live nymphs on solvent check plants • Y=No. of live nymphs on treated plants Pesticidally Acceptable Acid Addition Salts, Salt Derivatives, Solvates, Ester Derivatives, Polymorphs, Isotopes and Radionuclides

Structures are written as SMILES.

A word on the melting point: it is the temperature of the solid-liquid transition. Turning to `CSCC(C)(C)C(=O)N(C)c1cc(-c2cccnc2)nn1C` [Compound 3], the melting point fell in the range of 190 to 193 °C.

`Cc1nn(-c2cncc(F)c2)cc1NC(=O)OC(C)(C)C` [Compound 111, tert-butyl 1-(5-fluoropyridin-3-yl)-3-methyl-1H-pyrazol-4-ylcarbamate] gave a melting point of 131.5 to 133 °C.

Regarding `CCN(C(=O)CC(OC)(C(F)(F)F)C(F)(F)F)c1cn(-c2cccnc2)nc1C` [Compound 276, N-ethyl-4,4,4-trifluoro-3-methoxy-N-(3-methyl-1-(pyridin-3-yl)-1H-pyrazol-4-yl)-3-(trifluoromethyl)butanamide], the melting point is 83 to 86 °C.

With `CC(C)(C)OC(=O)Nc1cn(-c2cncc(F)c2)nc1C1CC1` [Compound 434, tert-butyl (3-cyclopropyl-1-(5-fluoropyridin-3-yl)-1H-pyrazol-4-yl)carbamate], the melting point lay within 156.5 to 158 °C.

For the compound `CC(C)C(=O)Nc1cn(-c2cncc(F)c2)nc1CO` [Compound 435, N-(1-(5-fluoropyridin-3-yl)-3-(hydroxymethyl)-1H-pyrazol-4-yl)isobutyramide], the melting point was in the range of 144 to 146 °C.

In turn, `CC(C)C(=O)Nc1cn(-c2cncc(F)c2)nc1C=O` [Compound 560, N-(1-(5-fluoropyridin-3-yl)-3-formyl-1H-pyrazol-4-yl)isobutyramide] registered a melting point of 140 to 142 °C.

On to `CC(C)C(=O)Nc1cn(-c2cncc(F)c2)nc1CCl` [Compound 561, N-(3-(chloromethyl)-1-(5-fluoropyridin-3-yl)-1H-pyrazol-4-yl)isobutyramide], for which the melting point fell in the range of 172 to 177 °C.

The compound `C#CCN(C(=O)OC(C)(C)C)c1cn(-c2cccnc2)nc1C` [Compound 596] yielded a melting point of 73 to 75 °C. Also, the pest or weed control at 200 ppm in data set [1] was 80 to 100%. Further, the pest or weed control at 200 ppm in data set [2] lay in the range of 80 to 100%.

In the case of `C#CCN(C(=O)CCC(F)(F)F)c1cn(-c2cccnc2)nc1C` [Compound 597], the figures for the pest or weed control at 200 ppm in data set [1] and in data set [2] were 80 to 100% and 0 to 80%, respectively.

In the case of `C#CCN(C(=O)CCSC)c1cn(-c2cccnc2)nc1C` [Compound 598], the pest or weed control at 200 ppm was in the range of 80 to 100% in data set [1] and 0 to 80% in data set [2].

Turning to `C#CCN(C(=O)C(C)CSC)c1cn(-c2cccnc2)nc1C` (stereo not drawn) [Compound 599], the pest or weed control at 200 ppm lay within 80 to 100% in data set [1] and 0 to 80% in data set [2].

Compound `C#CCN(C(=O)C(C)C)c1cn(-c2cccnc2)nc1C` [Compound 600] returned a melting point of 89 to 90 °C. Further, the pest or weed control at 200 ppm in data set [1] fell in the range of 80 to 100%. Also, the pest or weed control at 200 ppm in data set [2] lay within 0 to 80%.

As for `C#CCN(C(=O)OC(C)(C)C)c1cn(-c2cncc(F)c2)nc1C` [Compound 601, tert-butyl 1-(5-fluoropyridin-3-yl)-3-methyl-1H-pyrazol-4-yl(prop-2-ynyl)carbamate], the melting point was 81 to 82 °C. Moreover, the pest or weed control at 200 ppm in data set [1] fell in the range of 80 to 100%. Besides, the pest or weed control at 200 ppm in data set [2] was 80 to 100%.

Regarding `C#CCN(C(=O)C(C)CSC)c1cn(-c2cncc(F)c2)nc1C` (stereo not drawn) [Compound 602], the pest or weed control at 200 ppm in data set [1] and in data set [2] was 80 to 100% throughout.

`C#CCN(C(=O)C(C)C)c1cn(-c2cncc(F)c2)nc1C` [Compound 603] registered a melting point of 99 to 100 °C. For the same compound, the pest or weed control at 200 ppm in data set [1] was in the range of 80 to 100%. Further, in data set [2], the pest or weed control at 200 ppm fell in the range of 80 to 100%.

As to `C#CCN(C(=O)CCC(F)(F)F)c1cn(-c2cncc(F)c2)nc1C` [Compound 604], the pest or weed control at 200 ppm in data set [1] and in data set [2] was 80 to 100% in each case.

Take `C#CCN(C(=O)CCSC)c1cn(-c2cncc(F)c2)nc1C` [Compound 605, N-(1-(5-fluoropyridin-3-yl)-3-methyl-1H-pyrazol-4-yl)-3-(methylthio)-N-(prop-2-ynyl)propanamide]: the pest or weed control at 200 ppm in data set [1] and in data set [2] was 80 to 100% each time.

On to `C#CCN(C(=O)OC(C)(C)C)c1cn(-c2cccnc2)nc1Cl` [Compound 606, tert-butyl (3-chloro-1-(pyridin-3-yl)-1H-pyrazol-4-yl)(prop-2-yn-1-yl)carbamate], for which the pest or weed control at 200 ppm in data set [1] and in data set [2] was 80 to 100% in each case.

On to `C#CCN(C(=O)CCSC)c1cn(-c2cccnc2)nc1Cl` [Compound 607], for which the pest or weed control at 200 ppm in data set [1] and in data set [2] was 80 to 100% each time.

Consider `C#CCN(C(=O)C(C)CSC)c1cn(-c2cccnc2)nc1Cl` (stereo not drawn) [Compound 608], for which the pest or weed control at 200 ppm in data set [1] and in data set [2] was 80 to 100% in each case.

With `C#CCN(C(=O)CCC(F)(F)F)c1cn(-c2cccnc2)nc1Cl` [Compound 609], the pest or weed control at 200 ppm in data set [1] and in data set [2] was 80 to 100% each time.

`C#CCN(C(=O)C(C)C)c1cn(-c2cccnc2)nc1Cl` [Compound 610] yielded a melting point of 98 to 99 °C. Moreover, the pest or weed control at 200 ppm in data set [1] was 80 to 100%. Besides, in data set [2], the pest or weed control at 200 ppm fell in the range of 80 to 100%.

Turning to `C#CCN(C(=O)C(C)SC)c1cn(-c2cccnc2)nc1Cl` (stereo not drawn) [Compound 611, N-(3-chloro-1-(pyridin-3-yl)-1H-pyrazol-4-yl)-2-(methylthio)-N-(prop-2-yn-1-yl)propanamide], the pest or weed control at 200 ppm in data set [1] and in data set [2] was 80 to 100% throughout.

Compound `C#CCN(C(=O)CSC)c1cn(-c2cccnc2)nc1Cl` [Compound 612] had a melting point of 65 to 68 °C. Further, in data set [1], the pest or weed control at 200 ppm is 80 to 100%. Further, the pest or weed control at 200 ppm in data set [2] fell in the range of 80 to 100%.

Turning to `C#CCN(C(=O)CC(SC)C(F)(F)F)c1cn(-c2cccnc2)nc1Cl` (stereo not drawn) [Compound 613, N-(3-chloro-1-(pyridin-3-yl)-1H-pyrazol-4-yl)-4,4,4-trifluoro-3-(methylthio)-N-(prop-2-yn-1-yl)butanamide], the pest or weed control at 200 ppm in data set [1] and in data set [2] was 80 to 100% each time.

`C#CCN(C(=O)CCC(C)(F)F)c1cn(-c2cccnc2)nc1Cl` [Compound 614]: the pest or weed control at 200 ppm in data set [1] and in data set [2] was 80 to 100% in each case.

As for `C#CCN(C(=O)CCC(F)(F)C(F)(F)F)c1cn(-c2cccnc2)nc1Cl` [Compound 615], the pest or weed control at 200 ppm in data set [1] lay within 0 to 80%; in data set [2], 80 to 100%.

On to `C#CCN(C(=O)C[S+](C)[O-])c1cn(-c2cccnc2)nc1Cl` (stereo not drawn) [Compound 620], for which the pest or weed control at 200 ppm in data set [1] and in data set [2] was 80 to 100% each time.

For `C#CCN(C(=O)CS(C)(=O)=O)c1cn(-c2cccnc2)nc1Cl` [Compound 621], the pest or weed control at 200 ppm in data set [1] and in data set [2] was 80 to 100% each time.

Consider `C#CCN(C(=O)C(SC)C(=O)CSC)c1cn(-c2cccnc2)nc1Cl` (stereo not drawn) [Compound 622], for which the pest or weed control at 200 ppm in data set [1] and in data set [2] was 80 to 100% each time.

Consider `C#CCN(C(=O)CN(C)S(C)(=O)=O)c1cn(-c2cccnc2)nc1Cl` [Compound 623, N-(3-chloro-1-(pyridin-3-yl)-1H-pyrazol-4-yl)-2-(N-methylmethylsulfonamido)-N-(prop-2-yn-1-yl)acetamide], for which the pest or weed control at 200 ppm in data set [1] and in data set [2] was 80 to 100% each time.

`C#CCN(C(=O)CCSC(c1ccccc1)(c1ccccc1)c1ccccc1)c1cn(-c2cccnc2)nc1Cl` [Compound 624] gave a melting point of 68 to 70 °C.

`C#CCN(C(=O)CCSCCC(F)(F)F)c1cn(-c2cccnc2)nc1Cl` [Compound 626]: the pest or weed control at 200 ppm in data set [1] and in data set [2] was 80 to 100% each time.

On to `C#CCN(C(=O)CCSCCC(F)(F)F)c1cn(-c2cccnc2)nc1C` [Compound 627, N-(3-methyl-1-(pyridin-3-yl)-1H-pyrazol-4-yl)-N-(prop-2-yn-1-yl)-3-((3,3,3-trifluoropropyl)thio)propanamide], for which the pest or weed control at 200 ppm in data set [1] and in data set [2] was 80 to 100% each time.
